# Read-outs that look alike come from different tables or passages of the source.
# How the values were obtained:
# [1] = system: Trichomonas vaginalis cells, TVH1 strain; assay type: cell-based; conditions: for inhibition at 0.2 µg/mL / inhibition at 0.4 µg/mL / inhibition at 0.8 µg/mL / inhibition at 1.6 µg/mL / inhibition at 3.1 µg/mL / inhibition at 6.2 µg/mL / inhibition at 3.9 µg/mL / inhibition at 7.8 µg/mL / inhibition at 15.6 µg/mL / inhibition at 31.2 µg/mL / inhibition at 62.5 µg/mL / inhibition at 250 µg/mL: read-out: Growth inhibition percent (Mean ± SD)
# [2] = system: Trichomonas vaginalis cells, TVH1 strain; assay: Annexin V/PI apoptosis assay by flow cytometry; assay type: cell-based; conditions: sub-MLC concentration, 24 hours
# [3] = system: Vero cells; assay: MTT cytotoxicity assay; assay type: cell-based; conditions: for CC50: Vero cells
# [4] = system: Plasmodium falciparum; conditions: cited from earlier work; for antimalarial activity: among 20 nature identical essential oil constituents
# [5] = system: intramacrophagic amastigotes of L. amazonensis; conditions: cited from earlier work
# [6] = MTT cytotoxicity assay; assay type: cell-based; conditions: African green monkey, Vero cells
# [7] = system: promastigotes of L. amazonensis; conditions: cited from earlier work
compound,measurement,setting,value
Tannic acid,Growth inhibition percent (Mean ± SD),"[1]; 62.5 μg/ml, 12 hours",1.4 ± 5.2%
same,Growth inhibition percent (Mean ± SD),"[1]; 62.5 μg/ml, 24 hours",4.3 ± 4.9%
same,Growth inhibition percent (Mean ± SD),"[1]; 62.5 μg/ml, 48 hours",21.1 ± 6.2%
same,Growth inhibition percent (Mean ± SD),"[1]; 250 μg/ml, 12 hours",13.4 ± 8.3%
same,Growth inhibition percent (Mean ± SD),"[1]; 250 μg/ml, 24 hours",26.4 ± 3.9%
same,Growth inhibition percent (Mean ± SD),"[1]; 250 μg/ml, 48 hours",71.5 ± 6.8%
same,Growth inhibition percent (Mean ± SD),"[1]; 500 μg/ml, 12 hours",16.9 ± 5.2%
same,Growth inhibition percent (Mean ± SD),"[1]; 500 μg/ml, 24 hours",33.8 ± 4.8%
same,Growth inhibition percent (Mean ± SD),"[1]; 500 μg/ml, 48 hours",74.9 ± 5.1%
same,Growth inhibition percent (Mean ± SD),"[1]; 1000 μg/ml, 12 hours",19.8 ± 6.7%
same,Growth inhibition percent (Mean ± SD),"[1]; 1000 μg/ml, 24 hours",59.9 ± 6.2%
same,Growth inhibition percent (Mean ± SD),"[1]; 1000 μg/ml, 48 hours",87.6 ± 4.4%
same,Growth inhibition percent (Mean ± SD),"[1]; 2000 μg/ml, 12 hours",78.8 ± 5.1%
same,Growth inhibition percent (Mean ± SD),"[1]; 2000 μg/ml, 24 hours",80.4 ± 3.8%
same,Growth inhibition percent (Mean ± SD),"[1]; 2000 μg/ml, 48 hours",100 ± 0.0%
same,Growth inhibition percent (Mean ± SD),"[1]; 4000 μg/ml, 12 hours",100 ± 0.0%
same,Growth inhibition percent (Mean ± SD),"[1]; 4000 μg/ml, 24 hours",100 ± 0.0%
same,Growth inhibition percent (Mean ± SD),"[1]; 4000 μg/ml, 48 hours",100 ± 0.0%
same,IC50,[1]; 12 hours incubation,1398 µg/mL
same,MLC (minimum lethal concentration),[1]; 12 hours incubation,4000 µg/mL
same,IC50,[1]; 24 hours incubation,689 µg/mL
same,MLC (minimum lethal concentration),[1]; 24 hours incubation,4000 µg/mL
same,IC50,[1]; 48 hours incubation,140 µg/mL
same,MLC (minimum lethal concentration),[1]; 48 hours incubation,2000 µg/mL
same,mean IC50,"[1]; average of 12, 24 and 48 hours",742.3 µg/mL
same,necrotic effect,[2],31.9%
same,CC50,[3]; 12 hours,747 µg/mL
same,CC50,[3]; 24 hours,677 µg/mL
same,CC50,[3]; 48 hours,473 µg/mL
C=CC(C)(O)CCC=C(C)CCC=C(C)C (mixture of isomers) [nerolidol],antimalarial activity,[4],most potent antimalarial activity
"Cc1ncc([N+](=O)[O-])n1CCO [Metronidazole, reference compound]",MLC (minimum lethal concentration),[1]; 12 hours incubation,25 µg/mL
same,MLC (minimum lethal concentration),[1]; 48 hours incubation,6.25 µg/mL
same,drug susceptibility of the isolate,[1]; TVH1 isolate,sensitive
same,inhibition at 0.2 µg/mL,"[1]; Trichomonas vaginalis, 12 h",4.9 ± 3.9%
same,inhibition at 0.4 µg/mL,"[1]; Trichomonas vaginalis, 12 h",19.3 ± 5.5%
same,inhibition at 0.8 µg/mL,"[1]; Trichomonas vaginalis, 12 h",38.9 ± 7.1%
same,inhibition at 1.6 µg/mL,"[1]; Trichomonas vaginalis, 12 h",59.2 ± 8.6%
same,inhibition at 3.1 µg/mL,"[1]; Trichomonas vaginalis, 12 h",64.6 ± 5.3%
same,inhibition at 6.2 µg/mL,"[1]; Trichomonas vaginalis, 12 h",77.5 ± 6.3%
same,inhibition at 0.2 µg/mL,"[1]; Trichomonas vaginalis, 24 h",10.3 ± 6.7%
same,inhibition at 0.4 µg/mL,"[1]; Trichomonas vaginalis, 24 h",32.8 ± 2.6%
same,inhibition at 0.8 µg/mL,"[1]; Trichomonas vaginalis, 24 h",55 ± 4.6%
same,inhibition at 1.6 µg/mL,"[1]; Trichomonas vaginalis, 24 h",72.6 ± 2.3%
same,inhibition at 3.1 µg/mL,"[1]; Trichomonas vaginalis, 24 h",84.6 ± 2.7%
same,inhibition at 6.2 µg/mL,"[1]; Trichomonas vaginalis, 24 h",93.4 ± 0.6%
same,inhibition at 0.2 µg/mL,"[1]; Trichomonas vaginalis, 48 h",25.9 ± 4.8%
same,inhibition at 0.4 µg/mL,"[1]; Trichomonas vaginalis, 48 h",44 ± 2.2%
same,inhibition at 0.8 µg/mL,"[1]; Trichomonas vaginalis, 48 h",73.4 ± 2.5%
same,inhibition at 1.6 µg/mL,"[1]; Trichomonas vaginalis, 48 h",91.5 ± 2.3%
same,inhibition at 3.1 µg/mL,"[1]; Trichomonas vaginalis, 48 h",98.2 ± 0.4%
same,inhibition at 6.2 µg/mL,"[1]; Trichomonas vaginalis, 48 h",100%
CC1=CCC2CC1C2(C)C (stereo not drawn) [α-Pinene],MLC (minimum lethal concentration),[1]; 12 hours incubation,250 µg/mL
same,MLC (minimum lethal concentration),[1]; 24 hours incubation,125 µg/mL
same,MLC (minimum lethal concentration),[1]; 48 hours incubation,125 µg/mL
same,IC50,"[1]; Trichomonas vaginalis, 12 h",38.9 µg/mL
same,inhibition at 3.9 µg/mL,"[1]; Trichomonas vaginalis, 12 h",21.4 ± 7.6%
same,inhibition at 7.8 µg/mL,"[1]; Trichomonas vaginalis, 12 h",26.3 ± 5.5%
same,inhibition at 15.6 µg/mL,"[1]; Trichomonas vaginalis, 12 h",40.2 ± 6.3%
same,inhibition at 31.2 µg/mL,"[1]; Trichomonas vaginalis, 12 h",48.5 ± 4.1%
same,inhibition at 62.5 µg/mL,"[1]; Trichomonas vaginalis, 12 h",54.5 ± 3.3%
same,inhibition at 250 µg/mL,"[1]; Trichomonas vaginalis, 12 h",100%
same,IC50,"[1]; Trichomonas vaginalis, 24 h",30.2 µg/mL
same,inhibition at 3.9 µg/mL,"[1]; Trichomonas vaginalis, 24 h",15.5 ± 5.8%
same,inhibition at 7.8 µg/mL,"[1]; Trichomonas vaginalis, 24 h",29.2 ± 6.3%
same,inhibition at 15.6 µg/mL,"[1]; Trichomonas vaginalis, 24 h",69.3 ± 7.7%
same,inhibition at 31.2 µg/mL,"[1]; Trichomonas vaginalis, 24 h",76.5 ± 8.8%
same,inhibition at 62.5 µg/mL,"[1]; Trichomonas vaginalis, 24 h",80.9 ± 6.4%
same,inhibition at 250 µg/mL,"[1]; Trichomonas vaginalis, 24 h",100%
same,IC50,"[1]; Trichomonas vaginalis, 48 h",22.9 µg/mL
same,inhibition at 3.9 µg/mL,"[1]; Trichomonas vaginalis, 48 h",10.2 ± 6.5%
same,inhibition at 7.8 µg/mL,"[1]; Trichomonas vaginalis, 48 h",45.3 ± 4.7%
same,inhibition at 15.6 µg/mL,"[1]; Trichomonas vaginalis, 48 h",74.3 ± 5.2%
same,inhibition at 31.2 µg/mL,"[1]; Trichomonas vaginalis, 48 h",84.1 ± 4.3%
same,inhibition at 62.5 µg/mL,"[1]; Trichomonas vaginalis, 48 h",96.7 ± 6.2%
same,inhibition at 250 µg/mL,"[1]; Trichomonas vaginalis, 48 h",100%
same,IC50,"[1]; Trichomonas vaginalis, read-out: IC50 (range over incubation times)",22.9 to 38.9 µg/mL
same,IC50,"[1]; Trichomonas vaginalis, read-out: mean IC50",30.7 µg/mL
same,IC50 (cytotoxic effect),[5],15.6 µg/mL
same,necrotic effect,[2],50.5%
same,antimalarial activity,[4],most potent antimalarial activity
same,IC50,[4]; read-out: IC 50 (growth inhibition),1200 ± 200 nM
same,SI (selectivity index = CC50/IC50),"[3]; Vero CC50 / Trichomonas IC50, 12 hours",5.8
same,SI (selectivity index = CC50/IC50),"[3]; Vero CC50 / Trichomonas IC50, 24 hours",6.9
same,SI (selectivity index = CC50/IC50),"[3]; Vero CC50 / Trichomonas IC50, 48 hours",5
same,average selectivity index (SI),"[3]; average of 12, 24 and 48 hours",5.9
same,CC50 at 12 h,[6],226 µg/mL
same,CC50 at 24 h,[6],209 µg/mL
same,CC50 at 48 h,[6],116 µg/mL
same,IC50,[7],19.7 µg/mL
CC(C)=C1CC[C@@H](C)CC1=O [pulegone],antimalarial activity,[4],most potent antimalarial activity
C=CC(C)(CCC=C(C)C)OC(C)=O (stereo not shown) [linalyl acetate],antimalarial activity,[4],most potent antimalarial activity
